Assay results reported in publication PMC12040169 (PLOS Biology, 2025).

experiment: in vitro; conditions: human, hela cells, % viability

Q: Which viability at 28.5 h, 10 µM does the source give for `CCOC(=O)C(C)N1C(=O)S/C(=C/c2ccc(Oc3ccc([N+](=O)[O-])cn3)cc2)C1=O` (centres unmarked) [CBK265114] here?
A: 93.9%

Q: For `CN(C)S(=O)(=O)Nc1ccc(Cc2ccncc2)cc1` [CBK265011], which viability at 28.5 h, 10 µM is on record?
A: 115%

Q: With `CC1(C)CC(NC(=O)COc2ccc([N+](=O)[O-])cc2)CC(C)(C)N1` [CBK266806] as the compound, how does the viability at 28.5 h, 10 µM read?
A: 98%

Q: With `O=C(O)C1CCCN1C(=O)c1ccc(C#CC2(O)CCCCC2)cc1` (centres unmarked) [CBK287022] as the compound, how does the viability at 28.5 h, 10 µM read?
A: 105%

Q: Which viability at 28.5 h, 10 µM does the source give for `CN(C)c1ccc(CN2CC[C@H](c3nc4cccc(C(N)=O)c4[nH]3)C2)cc1` [CBK289414] here?
A: 105%

Q: With `O=C(Nc1cccc(NC(=S)NC(=O)c2ccc(Cl)cc2Cl)c1)c1ccccc1F` [CBK264828] as the compound, how does the viability at 28.5 h, 10 µM read?
A: 107%

Q: Which viability at 28.5 h, 10 µM does the source give for `Cc1ccc(C(=O)N2C[C@H]3CC[C@](O)(c4ccc(F)cc4)[C@H]3C2)o1` [CBK285267] here?
A: 95%

Q: With `COc1ncc(-c2nccnc2NCc2cccc(OC)c2OC)c(OC)n1` [CBK037506] as the compound, how does the viability at 28.5 h, 10 µM read?
A: 76.9%

Q: With `COc1cccc(NC(=O)C2CN(S(=O)(=O)c3ccccc3)CCN2S(=O)(=O)c2ccccc2)c1` (centres unmarked) [CBK262694] as the compound, how does the viability at 28.5 h, 10 µM read?
A: 85.9%

Q: For `CN(C)c1nc(N2CCN(c3ccc(F)cc3)CC2)cc(C(F)(F)F)n1` [CBK007432], which viability at 28.5 h, 10 µM is on record?
A: 91.1%

Q: For `Cc1nc2cc(C(=O)N3CCC(c4ccncc4)CC3)ccc2s1` [CBK283513], which viability at 28.5 h, 10 µM is on record?
A: 85.7%

Q: With `C/C(=N/NC(=O)CSc1nc2ccccc2n1C)c1cccc([N+](=O)[O-])c1` [CBK263179] as the compound, how does the viability at 28.5 h, 10 µM read?
A: 99.3%

Q: With `O=C(Cc1cc(F)c(F)c(F)c1)NCCc1c[nH]c2ccc(Cl)cc12` [CBK159768] as the compound, how does the viability at 28.5 h, 10 µM read?
A: 112%

Q: Which viability at 28.5 h, 10 µM does the source give for `CCC(=O)N[C@H]1CC[C@@]2(Cc3ccc(OC)cc3)CCN(C)[C@H]2C1` [CBK024126] here?
A: 98.9%

Q: For `COc1ccc(Br)cc1C1CCCN1C(=O)Cc1cnccc1C` (centres unmarked) [CBK304130], which viability at 28.5 h, 10 µM is on record?
A: 93.7%

Q: Which viability at 28.5 h, 10 µM does the source give for `CCOc1cc(C)ccc1S(=O)(=O)n1nnc2ccccc21` [CBK287796] here?
A: 97.3%

Q: Which viability at 28.5 h, 10 µM does the source give for `COc1cccc(CCN2N=C(C)CC2=O)c1OC` [CBK067766] here?
A: 100%

Q: With `COc1ccc([C@@]23CC[C@@H](NC(=O)Nc4ccccc4C#N)C[C@@H]2N(C)CC3)cc1OC` [CBK047540T] as the compound, how does the viability at 28.5 h, 10 µM read?
A: 96.1%

Q: For `CN1CCN(C(=O)CCn2c(C(F)(F)F)cc3cccnc32)CC1` [CBK284896], which viability at 28.5 h, 10 µM is on record?
A: 93.7%

Q: For `CCN(CC)C(=O)c1sc2ncccc2c1NS(=O)(=O)Cc1ccccc1[N+](=O)[O-]` [CBK050022], which viability at 28.5 h, 10 µM is on record?
A: 92.1%

Q: For `NC(=O)CSc1nnc(-c2cccnc2)n1Cc1ccccc1` [CBK268672], which viability at 28.5 h, 10 µM is on record?
A: 99.2%

Q: For `Cc1cccc(NS(=O)(=O)c2ccc(I)cc2)n1` [CBK268818], which viability at 28.5 h, 10 µM is on record?
A: 87%

Q: For `Cc1cc(OCC(=O)NCCCN2CCOCC2)cc(C)c1Br` [CBK265082], which viability at 28.5 h, 10 µM is on record?
A: 99.9%

Q: Which viability at 28.5 h, 10 µM does the source give for `COc1ccc(C(=O)n2nc(SC)nc2N)cc1` [CBK006853] here?
A: 100%

Q: With `O=C(CC(CC(=O)c1ccc(Cl)cc1)c1ccccc1C(=O)O)c1ccc(Cl)cc1` [CBK265604] as the compound, how does the viability at 28.5 h, 10 µM read?
A: 93.6%

Q: With `O=C(Cn1cc(C(=O)NC2(c3ccccc3)CCCC2)ccc1=O)NCc1ccc(F)cc1` [CBK286027] as the compound, how does the viability at 28.5 h, 10 µM read?
A: 84.4%

Q: With `CC(C(=O)O)N(c1ccc(Cl)cc1)S(C)(=O)=O` (centres unmarked) [CBK267945] as the compound, how does the viability at 28.5 h, 10 µM read?
A: 111%

Q: For `CCCCOc1ccccc1C1CC(=O)Nc2c(-c3ccccc3F)csc21` (centres unmarked) [CBK294439], which viability at 28.5 h, 10 µM is on record?
A: 81%

Q: Which viability at 28.5 h, 10 µM does the source give for `O=C(NC(=O)C1CCN(CC2COc3ccccc3O2)CC1)Nc1ccccc1` (centres unmarked) [CBK035267] here?
A: 92.4%

Q: Which viability at 28.5 h, 10 µM does the source give for `Cc1ccc2oc3c(c(=O)c2c1)C(c1ccc(OCC(N)=O)cc1)N(Cc1ccc2c(c1)OCO2)C3=O` (centres unmarked) [CBK267189] here?
A: 91.3%

Q: Which viability at 28.5 h, 10 µM does the source give for `COc1ccc(C(=O)N2CCC3(CCCN(C(=O)Cc4ccc(Cl)c(Cl)c4)C3)C2)cc1OC` (centres unmarked) [CBK131654] here?
A: 98.1%

Q: Which viability at 28.5 h, 10 µM does the source give for `O=C(CN1C2CCC1CC(O)(c1ccco1)C2)N1c2ccccc2CCc2ccccc21` (centres unmarked) [CBK286168] here?
A: 94%

Q: Which viability at 28.5 h, 10 µM does the source give for `COCCCOc1nc2cc(Cl)c(Cl)cc2nc1N1CCCC1` [CBK115773] here?
A: 95.9%

Q: For `O=C1C2C(c3ccccc3)NC(c3ccccc3)C1C(c1ccccc1)NC2c1ccccc1` (centres unmarked) [CBK260981], which viability at 28.5 h, 10 µM is on record?
A: 93%

Q: For `Cc1n[nH]c(O)c1C(c1ccc(OC(=O)c2ccccc2)cc1)c1c(C)n[nH]c1O` [CBK265019], which viability at 28.5 h, 10 µM is on record?
A: 109%

Q: For `CCOC(=O)CC(O)(c1ccc(OC)cc1)c1cc(C)no1` (centres unmarked) [CBK023133], which viability at 28.5 h, 10 µM is on record?
A: 107%

Q: With `Nc1nc(Cn2nc(-c3ccc(F)cc3)oc2=O)nc(Nc2ccc(F)cc2)n1` [CBK296742] as the compound, how does the viability at 28.5 h, 10 µM read?
A: 91.6%

Q: With `CCOc1ccc(S(=O)(=O)N2CCCN(CCCC#N)CC2)c2cccnc12` [CBK062935] as the compound, how does the viability at 28.5 h, 10 µM read?
A: 98.5%

Q: With `Cc1ccc(Cl)cc1N(Cc1ccc(C(=O)N2CCC(C)CC2)cc1)S(=O)(=O)c1ccccc1` [CBK033646] as the compound, how does the viability at 28.5 h, 10 µM read?
A: 107%

Q: Which viability at 28.5 h, 10 µM does the source give for `O=C(CC1CCCCC1)N1CCCC1c1n[nH]cc1-c1ccncc1` (centres unmarked) [CBK283429] here?
A: 90.4%

Q: With `O=C(NC1CCN(C(=O)CCn2ccc3ccncc32)CC1)C1CC1` [CBK284718] as the compound, how does the viability at 28.5 h, 10 µM read?
A: 78.3%

Q: Which viability at 28.5 h, 10 µM does the source give for `Cc1ccc(S(=O)(=O)N/N=C(/c2ccccc2)c2ccc(OCC(C)C)cc2)cc1` [CBK261056] here?
A: 87.8%

Q: With `FC(F)(F)Oc1ccccc1-c1nnc(NC2CCCCCC2)s1` [CBK074041] as the compound, how does the viability at 28.5 h, 10 µM read?
A: 93.8%

Q: Which viability at 28.5 h, 10 µM does the source give for `CC(C)[C@@H](CO)Nc1nc(-c2cncnc2)cnc1N` [CBK063735] here?
A: 99.4%

Q: With `COc1ccccc1C(NC(=O)C1CCN(CCc2c[nH]c3ccccc23)CC1)c1ccccn1` (centres unmarked) [CBK147923] as the compound, how does the viability at 28.5 h, 10 µM read?
A: 87.8%

Q: Which viability at 28.5 h, 10 µM does the source give for `CN1CCN(C(=O)Cc2csc(-c3ccc(Cl)cc3)n2)CC1` [CBK107301] here?
A: 104%

Q: For `O=c1[nH]c(SCc2c(Cl)cccc2Cl)nc2ccnn12` [CBK116145], which viability at 28.5 h, 10 µM is on record?
A: 92.8%

Q: For `CC(C)(C)c1cc(C(c2ccccc2O)N2CCOCC2)cc(C(C)(C)C)c1O` (centres unmarked) [CBK262998], which viability at 28.5 h, 10 µM is on record?
A: 86.4%

Q: For `CCOc1c(OC)cc(C#N)cc1C(=O)O` [CBK269925], which viability at 28.5 h, 10 µM is on record?
A: 87.3%

Q: Which viability at 28.5 h, 10 µM does the source give for `CCc1nn(CCN2CCCC2)c(=O)c2cc3sccc3n12` [CBK284075] here?
A: 83.5%

Q: With `O=C(CN1CCCC[C@H]2CN(C(=O)c3cccs3)C[C@H]21)NC1CC1` [CBK285504] as the compound, how does the viability at 28.5 h, 10 µM read?
A: 90.5%

Q: With `O=C(CNc1n[nH]c(=O)[nH]c1=O)N/N=C/c1ccc(C(=O)O)cc1` [CBK263529] as the compound, how does the viability at 28.5 h, 10 µM read?
A: 96.2%

Q: For `COC[C@@H]1CCCN1S(=O)(=O)c1ccc(C(C)C)cc1` [CBK200045], which viability at 28.5 h, 10 µM is on record?
A: 110%

Q: With `Cc1cccc(C2(O)CCN(CC(O)c3ccc4c(c3)CCC4)CC2)c1` (centres unmarked) [CBK286330] as the compound, how does the viability at 28.5 h, 10 µM read?
A: 95.3%

Q: Which viability at 28.5 h, 10 µM does the source give for `COC(=O)c1ccc2c(c1)[n+](CCO)c(C)n2CCO` [CBK262443C] here?
A: 88.1%

Q: With `CCCc1[nH]nc(O)c1Cc1cc(C(F)(F)F)ccc1Cl` [CBK075032] as the compound, how does the viability at 28.5 h, 10 µM read?
A: 96.9%

Q: For `Cc1ccc2nc(C(=O)O)cc(OCC(=O)Nc3ccccc3F)c2c1` [CBK287255], which viability at 28.5 h, 10 µM is on record?
A: 88.8%

Q: Which viability at 28.5 h, 10 µM does the source give for `COc1ccc(-c2cnc(N)c(N[C@H](C)c3ccccc3)n2)c(OC)c1OC` [CBK063747] here?
A: 105%

Q: With `O=C(c1n[nH]c2c1CCCC2)N1CC(=O)N(CCc2ccccc2)C(=O)C1` [CBK288110] as the compound, how does the viability at 28.5 h, 10 µM read?
A: 98.3%

Q: With `CCOCCn1cnc2sc(C(=O)Nc3cccc(Cl)c3)c(C)c2c1=O` [CBK071854] as the compound, how does the viability at 28.5 h, 10 µM read?
A: 91.8%

Q: With `COc1cc2c(cc1-c1cn(CCN3CCCOC3=O)nn1)CCC2` [CBK306515] as the compound, how does the viability at 28.5 h, 10 µM read?
A: 107%

Q: Which viability at 28.5 h, 10 µM does the source give for `O=C(c1ccncc1)N1CCCCC1c1nc2ccccc2[nH]1` (centres unmarked) [CBK281641] here?
A: 87.2%
